Results as given in patent US7994187B2, “HIV inhibiting 3,4-dihydro-imidazo[4,5-B]pyridin-5-ones” (Tibotec Pharmaceuticals Ltd., priority 2006, dated 2011).

Key:
[1] = tested on: wild-type HIV-IIIB strain; assay: Anti-viral activity in cellular assay, MT4 LTR-EGFP cells (GFP fluorescence); type: cell-based, HIV-1; conditions: Human immunodeficiency virus 1, 72 h, pEC50 = -log10(EC50), measured three days after infection
Protocol: The compounds of the present invention were tested for anti-viral activity in a cellular assay, which was performed according to the following procedure.
The human T-cell line MT4 is engineered with Green Fluorescent Protein (GFP) and an HIV-specific promoter, HIV-1 long terminal repeat (LTR). This cell line is designated MT4 LTR-EGFP, and can be used for the in vitro evaluation of anti-HIV activity of investigational compounds. In HIV-1 infected cells, the Tat protein is produced which upregulates the LTR promotor and finally leads to stimulation of the GFP reporter production, allowing to measure ongoing HIV-infection fluorometrically.
(§1) Effective concentration values such as 50% effective concentration (EC50) can be determined and are usually expressed in μM. An EC50 value is defined as the concentration of test compound that reduces the fluorescence of HIV-infected cells by 50%. The 50% cytotoxic concentration (CC50 in μM) is defined as the concentration of test compound that reduces fluorescence of the mock-infected cells by 50%. The ratio of CC50 to EC50 is defined as the selectivity index (SI) and is an indication of the selectivity of the anti-HIV activity of the inhibitor. The ultimate monitoring of HIV-1 infection and cytotoxicity is done using a scanning microscope. Image analysis allows very sensitive detection of viral infection. Measurements are done before cell necrosis, which usually takes place about five days after infection, in particular measurements are performed three days after infection.
The following Table 6 lists pEC50 values against wild-type HIV-IIIB strain as well as pEC50 values for a selected number of compounds of the invention. A pEC50 value corresponds to −log10(EC50). Listed are compounds having a pEC50 value of at least 5.00.

[2] = Cytotoxicity in mock-infected MT4 CMV-EGFP cells (GFP fluorescence); type: cell-based; conditions: human, 50% cytotoxic concentration as negative log
Text: Analogously, MT4 cells are engineered with GFP and the constitutional cytomegalovirus (CMV) promotor. This cell line is designated MT4 CMV-EGFP, and can be used for the in vitro evaluation of cytotoxicity of investigational compounds. In this cell line, GFP levels are comparably to those of infected MT4 LTR-EGFP cells. Cytotoxic investigational compounds reduce GFP levels of mock-infected MT4 CMV-EGFP cells.
as §1

O=c1c2ccccc2c2nc3ccc(OCCN4CCCC4)cn3c2n1-c1ccc([N+](=O)[O-])cc1 [Compound 78]
EC50 [1]: 3020 nM
CC50 at 3 days [2]: > 32400 nM

O=c1c2ccccc2c2nc3ccc(NCCO)nn3c2n1-c1ccc([N+](=O)[O-])cc1 [Compound 121, 9-[(2-hydroxyethyl)amino]-6-(4-nitrophenyl)-pyridazo[3′,2′:2,3]imidazo[4,5-c]isoquinolin-5(6H)-one]
EC50 [1]: 275 nM
CC50 at 3 days [2]: 14800 nM

O=c1c2ccccc2c2nc3ccc(OP(=O)(O)O)cn3c2n1-c1ccc(Cl)nc1 [Compound 77]
EC50 [1]: 1120 nM
CC50 at 3 days [2]: 25700 nM

CCc1ccc(-n2c(=O)c3ccccc3c3nc4ccccn4c32)cn1 [Compound 27, 6-(6-ethyl-pyridin-3-yl)-pyrido[2′,1′:2,3]imidazo[4,5-c]-isoquinolin-5(6H)-one]
EC50 [1]: 5750 nM
CC50 at 3 days [2]: 26300 nM

CN(C)CCN(C)c1ccc2nc3c4ccccc4c(=O)n(-c4ccc([N+](=O)[O-])cc4)c3n2c1 [Compound 68]
EC50 [1]: 1230 nM
CC50 at 3 days [2]: 16600 nM

O=c1c2ccccc2c2nc3ccc(NCCN4CCCC4)cn3c2n1-c1ccc([N+](=O)[O-])cc1 [Compound 67, 6-(4-nitrophenyl)-9-(2-pyrrolidin-1-yl-ethylamino)-pyrido[2′,1′:2,3]imidazo[4,5-c]isoquinolin-5(6H)-one]
EC50 [1]: 339 nM
CC50 at 3 days [2]: 2630 nM

O=c1c2cc(Br)ccc2c2nc3ccccn3c2n1-c1ccc([N+](=O)[O-])cc1 [Compound 101, 3-bromo-6-(4-nitrophenyl)-pyrido[2′,1′:2,3]imidazo[4,5-c]isoquinolin-5(6H)-one]
EC50 [1]: 2190 nM
CC50 at 3 days [2]: > 100000 nM

Cc1ccc(-n2c(=O)c3ccccc3c3nc4ccccn4c32)cc1[N+](=O)[O-] [Compound 22]
EC50 [1]: 2880 nM
CC50 at 3 days [2]: > 32400 nM

CN(C)CCNc1ccc2nc3c4ccccc4c(=O)n(-c4ccc([N+](=O)[O-])cc4)c3n2n1 [Compound 122]
EC50 [1]: 89.1 nM
CC50 at 3 days [2]: 69.2 nM

O=c1c2ccccc2c2nc3ccc(NCCNCCO)nn3c2n1-c1ccc([N+](=O)[O-])cc1 [Compound 130]
EC50 [1]: 219 nM
CC50 at 3 days [2]: 3550 nM

O=c1c2ccccc2c2nc3sccn3c2n1-c1ccc([N+](=O)[O-])cc1 [Compound 98, 6-(4-nitrophenyl)-thiazolo[2′,3′:2,3]imidazo[4,5-c]isoquinolin-5(6H)-one]
EC50 [1]: 977 nM
CC50 at 3 days [2]: > 32400 nM

O=c1c2ccccc2c2nc3ccc(NCCN4CCCC4)nn3c2n1-c1ccc([N+](=O)[O-])cc1 [Compound 115]
EC50 [1]: 912 nM
CC50 at 3 days [2]: 832 nM

O=c1c2ccccc2c2nc3ccc(OP(=O)(O)O)cn3c2n1-c1ccc([N+](=O)[O-])cc1 [Compound 76, phosphoric acid 5,6-dihydro-6-(4-nitrophenyl)-5-oxo-pyrido[2′,1′:2,3]imidazo[4,5-c]isoquinolin-9-yl ester]
EC50 [1]: 74.1 nM
CC50 at 3 days [2]: > 32400 nM

CN(C)CCCOc1ccc2nc3c4ccccc4c(=O)n(-c4ccc([N+](=O)[O-])cc4)c3n2c1 [Compound 82]
EC50 [1]: 1120 nM
CC50 at 3 days [2]: 8910 nM

O=c1c2ccccc2c2nc3cc(CO)ccn3c2n1-c1ccc([N+](=O)[O-])cc1 [Compound 9]
EC50 [1]: 724 nM
CC50 at 3 days [2]: > 32400 nM

O=c1c2sccc2c2nc3ccccn3c2n1-c1ccc([N+](=O)[O-])cc1 [Compound 103, 5-(4-nitrophenyl)-pyrido[2′,1′:2,3]imidazo[4,5-b]thieno[3,2-d]pyridin-4(5H)-one]
EC50 [1]: 1000 nM
CC50 at 3 days [2]: > 32400 nM

O=CNc1ccc2nc3c4ccccc4c(=O)n(-c4ccc([N+](=O)[O-])cc4)c3n2c1 [Compound 70]
EC50 [1]: 603 nM
CC50 at 3 days [2]: > 32400 nM

O=C(Nc1ccc2nc3c4ccccc4c(=O)n(-c4ccc(Cl)nc4)c3n2c1)C(F)(F)F [Compound 61, N-[6-(6-chloro-pyridin-3-yl)-5,6-dihydro-5-oxo-pyrido[2′,1′:2,3]imidazo[4,5-c]isoquinolin-9-yl]-2,2,2-trifluoro-acetamide]
EC50 [1]: 2090 nM
CC50 at 3 days [2]: > 32400 nM

CN(C)/C=N/c1ccc2nc3c4ccccc4c(=O)n(-c4ccc(Cl)nc4)c3n2c1 [Compound 84, 6-(6-chloro-pyridin-3-yl)-9-[[(dimethylamino)-methylene]amino]-pyrido[2′,1′:2,3]imidazo[4,5-c]isoquinolin-5(6H)-one]
EC50 [1]: 6170 nM
CC50 at 3 days [2]: 16600 nM

Cc1cccc2c(=O)n(-c3ccc([N+](=O)[O-])cc3)c3c(nc4ccc(O)cn43)c12 [Compound 110, 9-hydroxy-1-methyl-6-(4-nitrophenyl)-pyrido[2′,1′:2,3]imidazo[4,5-c]isoquinolin-5(6H)-one]
EC50 [1]: 53.7 nM
CC50 at 3 days [2]: 5370 nM

O=c1c2ccccc2c2nc3ccc(O)cn3c2n1-c1ccc([N+](=O)[O-])cc1 [Compound 10, 9-hydroxy-6-(4-nitrophenyl)-pyrido[2′,1′:2,3]imidazo[4,5-c]isoquinolin-5(6H)-one]
EC50 [1]: 155 nM
CC50 at 3 days [2]: > 32400 nM

O=c1c2ccccc2c2nc3ccc(OCCO)cn3c2n1-c1ccc([N+](=O)[O-])cc1 [Compound 74, 9-[2-hydroxy-ethoxy]-6-(4-nitrophenyl)-pyrido[2′,1′:2,3]imidazo[4,5-c]isoquinolin-5(6H)-one]
EC50 [1]: 871 nM
CC50 at 3 days [2]: > 32400 nM

O=c1c2ccccc2c2nc3ccc(NCCCO)nn3c2n1-c1ccc([N+](=O)[O-])cc1 [Compound 118]
EC50 [1]: 646 nM
CC50 at 3 days [2]: > 32400 nM

Nc1ccc2nc3c4ccccc4c(=O)n(-c4ccc([N+](=O)[O-])cc4)c3n2n1 [Compound 129, 9-amino-6-(4-nitrophenyl)-pyridazo-[3′,2′:2,3]imidazo[4,5-c]isoquinolin-5(6H)-one]
EC50 [1]: 166 nM
CC50 at 3 days [2]: > 32400 nM

O=c1c2ccccc2c2nc3ccc(NCc4ccccc4)nn3c2n1-c1ccc([N+](=O)[O-])cc1 [Compound 125]
EC50 [1]: 5250 nM
CC50 at 3 days [2]: > 20000 nM

CCNCCNc1ccc2nc3c4ccccc4c(=O)n(-c4ccc([N+](=O)[O-])cc4)c3n2n1 [Compound 128]
EC50 [1]: 30.9 nM
CC50 at 3 days [2]: 851 nM

O=c1c2ccccc2c2nc3ccccn3c2n1-c1ccc([N+](=O)[O-])cc1 [Compound 1, 6-(4-nitrophenyl)-pyrido[2′,1′:2,3]imidazo-[4,5-c]isoquinolin-5(6H)-one]
EC50 [1]: 355 nM
CC50 at 3 days [2]: > 32400 nM

O=c1c2ccccc2c2nc3ccccn3c2n1-c1ccc(Cl)nc1 [Compound 18]
EC50 [1]: 8130 nM
CC50 at 3 days [2]: > 32400 nM

CN(C)CCCNc1ccc2nc3c4ccccc4c(=O)n(-c4ccc([N+](=O)[O-])cc4)c3n2n1 [Compound 120]
EC50 [1]: 631 nM
CC50 at 3 days [2]: 1320 nM

CNc1ccc2nc3c4ccccc4c(=O)n(-c4ccc([N+](=O)[O-])cc4)c3n2n1 [Compound 114]
EC50 [1]: 245 nM
CC50 at 3 days [2]: > 32400 nM

Cc1ccc(-n2c(=O)c3ccccc3c3nc4ccccn4c32)cn1 [Compound 19]
EC50 [1]: 8910 nM
CC50 at 3 days [2]: > 32400 nM

CN(C)CCOc1ccc2nc3c4ccccc4c(=O)n(-c4ccc([N+](=O)[O-])cc4)c3n2c1 [Compound 81]
EC50 [1]: 3160 nM
CC50 at 3 days [2]: 13500 nM

O=c1c2ccccc2c2nc3ccc(NCCO)nn3c2n1-c1ccc(Cl)nc1 [Compound 126]
EC50 [1]: 2140 nM
CC50 at 3 days [2]: > 32400 nM

O=C(Nc1ccc2nc3c4ccccc4c(=O)n(-c4ccc([N+](=O)[O-])cc4)c3n2c1)C(F)(F)F [Compound 90]
EC50 [1]: 398 nM
CC50 at 3 days [2]: > 32400 nM

Nc1ccc2nc3c4ccccc4c(=O)n(-c4ccc(Cl)nc4)c3n2c1 [Compound 53, 9-amino-6-(6-chloro-pyridin-3-yl)-pyrido[2′,1′:2,3]imidazo-[4,5-c]isoquinolin-5(6H)-one]
EC50 [1]: 1660 nM
CC50 at 3 days [2]: 4570 nM

O=c1c2ccccc2c2nc3ccccn3c2n1-c1ccc(Br)nc1 [Compound 21, 6-(6-bromo-pyridin-3-yl)-pyrido-[2′,1′:2,3]imidazo[4,5-c]isoquinolin-5(6H)-one]
EC50 [1]: 4470 nM
CC50 at 3 days [2]: > 32400 nM
